Laboratory results published in PubChem BioAssay AID1259408 (Genetic Toxicology Data Bank (GENE-TOX), 2018).
Activity calls are given as the source filed them. How the calls were made is not given here.

System: GENE-TOX genotoxicity assays, various organisms and cells
Assay: GENE-TOX mutagenicity studies
Details: for call: Assay Type: In vivo carcinogenicity studies
[1] = Species/Cell Type: Salmonella typhimurium (one or more of the five standard strains: TA98, TA100, TA1535, TA1537, and TA1538), Assay Type: Histidine reverse gene mutation, Ames assay, Assay Code: SAL+*, Activation: With metabolic activation, Evaluation Type: Evaluation A (Pre-1980)
[2] = Species/Cell Type: Nonhuman, Assay Code: CCG+, Evaluation Type: Evaluation A (Pre-1980)
[3] = Species/Cell Type: Drosophila melanogaster, Assay Type: Sex-linked recessive lethal gene mutation, Assay Code: SRL+, Evaluation Type: Evaluation A (Pre-1980)
[4] = Species/Cell Type: Human lymphocytes, Assay Type: Sister-chromatid exchange (SCE) in vitro, Assay Code: SCL+D, Dose Response: With dose response, Evaluation Type: Evaluation B (Post-1980)
[5] = Species/Cell Type: Human, Assay Type: Sister-chromatid exchange (SCE) in vitro, Assay Code: SC1+D, Dose Response: With dose response, Evaluation Type: Evaluation B (Post-1980)
[6] = Species/Cell Type: Bacillus subtilis (H17 vs M45), Assay Type: Rec-assay, spot test, DNA effects (bacterial DNA repair), Assay Code: REW-, Evaluation Type: Evaluation A (Pre-1980)
[7] = Species/Cell Type: Salmonella typhimurium (one or more of the five standard strains: TA98, TA100, TA1535, TA1537, and TA1538), Assay Type: Histidine reverse gene mutation, Ames assay, Assay Code: SAL-, Evaluation Type: Evaluation A (Pre-1980)
[8] = Species/Cell Type: Nonhuman, Assay Type: Sister-chromatid exchange (SCE) in vitro, Assay Code: SC2+, Evaluation Type: Evaluation B (Post-1980)
[9] = Species/Cell Type: Salmonella typhimurium (one or more of the five standard strains: TA98, TA100, TA1535, TA1537, and TA1538), Assay Type: Histidine reverse gene mutation, Ames assay, Assay Code: SAL+, Evaluation Type: Evaluation A (Pre-1980)

For `c1ccc2ncccc2c1`, the mutagenic call (Species/Cell Type: Nonhuman, Assay Type: Sister-chromatid exchange (SCE) in vitro, Assay Code: SC2+D, Dose Response: With dose response, Evaluation Type: Evaluation B (Post-1980)) was “active; positive”, the mutagenic call (Species/Cell Type: Nonhuman, Assay Type: Sister-chromatid exchange (SCE) in vitro, Assay Code: SC2-, Evaluation Type: Evaluation A (Pre-1980)) was “inactive; negative” and the mutagenic call [1] was “active; positive”.
With `ClC1=C(Cl)C2(Cl)C3C(Cl)C=CC3C1(Cl)C2(Cl)Cl` (stereo unspecified) the mutagenic call (Species/Cell Type: Drosophila melanogaster, Assay Type: Sex-linked recessive lethal gene mutation, Assay Code: SRLT, Evaluation Type: Evaluation A (Pre-1980)) was “no conclusion”, the call (Species/Cell Type: Nonhuman, Assay Code: CCG+L, Evaluation Type: Evaluation A (Pre-1980)) was “active; positive” and the mutagenic call (Species/Cell Type: Zea mays (corn), Assay Type: Gene mutation, Assay Code: ZEM+, Evaluation Type: Evaluation A (Pre-1980)) was “active; positive”.
In the case of `Cn1c(=O)c2c([nH]c(=O)n2C)n(C)c1=O`, the mutagenic call (Species/Cell Type: Allium cepa, Assay Type: Chromosome aberrations, Assay Code: ALC-, Evaluation Type: Evaluation A (Pre-1980)) is reported as “inactive; negative”.
`O=C1CN=C(c2ccccc2Cl)c2cc([N+](=O)[O-])ccc2N1` was tested, and the mutagenic call (Species/Cell Type: Salmonella typhimurium, Assay Type: Forward and reverse gene mutation, body fluid assay, Assay Code: BFU-, Evaluation Type: Evaluation A (Pre-1980)) was “inactive; negative” and the mutagenic call (Species/Cell Type: Salmonella typhimurium, Assay Type: Forward and reverse gene mutation, host-mediated assay, Assay Code: HMA-, Evaluation Type: Evaluation A (Pre-1980)) was “inactive; negative”.
`CC(C)N(C(=O)SC/C(Cl)=C/Cl)C(C)C` was tested, and the mutagenic call (Species/Cell Type: Nonhuman, Assay Type: Sister-chromatid exchange (SCE) in vitro, Assay Code: SC2+D*, Activation: With metabolic activation, Dose Response: With dose response, Evaluation Type: Evaluation B (Post-1980)) was “active; positive” and the mutagenic call [1] was “active; positive”.
In the case of `[Be]=[O]`, the call [2] is reported as “active; positive”.
In the case of `CN(C)P(=O)(N1CC1)N1CC1`, the mutagenic call [3] is reported as “active; positive”, the mutagenic call [4] is reported as “active; positive” and the mutagenic call [5] is reported as “active; positive”. The mutagenic call (Species/Cell Type: Nonhuman, Assay Type: Chromosome aberrations in vitro, Assay Code: CY&+, Evaluation Type: Evaluation A (Pre-1980)) was “active; positive” and the mutagenic call (Species/Cell Type: Schizosaccharomyces pombe, Assay Type: Reverse gene mutation, Assay Code: YEZ+, Evaluation Type: Evaluation A (Pre-1980)) was “active; positive”.
With `COc1cc(-c2ccc(-[n+]3nc(-c4ccccc4)nn3-c3ccc([N+](=O)[O-])cc3)c(OC)c2)ccc1-[n+]1nc(-c2ccccc2)nn1-c1ccc([N+](=O)[O-])cc1` the mutagenic call (Species/Cell Type: Bacillus subtilis (H17 vs M45T), Assay Type: Rec-assay, spot test, DNA effects (bacterial DNA repair), Assay Code: REXT, Evaluation Type: Evaluation A (Pre-1980)) was “no conclusion”.
For `[Cl][Cu][Cl]`, the mutagenic call [6] was “inactive; negative”.
With `Clc1ccc(Br)cc1` the mutagenic call (Species/Cell Type: Saccharomyces cerevisiae, Assay Type: Mitotic recombination or gene conversion, Assay Code: YEH-, Evaluation Type: Evaluation A (Pre-1980)) was “inactive; negative” and the mutagenic call [7] was “inactive; negative”.
With `CCN(CC)CCCNC(=O)N/N=C/c1ccc([N+](=O)[O-])o1` the mutagenic call (Species/Cell Type: Escherichia coli WP2 UVRA, Assay Type: Tryptophan reverse gene mutation, Assay Code: WPU+, Evaluation Type: Evaluation A (Pre-1980)) was “active; positive”.
`O=NN(CCCl)C(=O)NC1CCCCC1` was tested, and the mutagenic call (Species/Cell Type: Chinese hamster lung (V79) cells, Assay Type: Forward gene mutation at the HPRT or ouabain locus, Assay Code: V79+, Evaluation Type: Evaluation A (Pre-1980)) was “active; positive”, the mutagenic call (Species/Cell Type: Chinese hamster ovary (CHO) cells, Assay Type: Forward gene mutation at the HPRT locus, Assay Code: CHO+, Evaluation Type: Evaluation B (Post-1980)) was “active; positive” and the mutagenic call (Species/Cell Type: Human lymphocytes, Assay Type: Sister-chromatid exchange (SCE) in vivo, Assay Code: SCY+, Evaluation Type: Evaluation B (Post-1980)) was “active; positive”. For the same compound, the call [2] was “active; positive”, the mutagenic call [8] was “active; positive” and the mutagenic call (Species/Cell Type: Rodents, Sex: Male, Assay Type: Dominant lethal test, Assay Code: DLT+D, Dose Response: With dose response, Evaluation Type: Evaluation A (Pre-1980)) was “active; positive”.
In the case of `O=C(O)CC[N+](=O)[O-]`, the mutagenic call (Species/Cell Type: Fischer rat embryo (RLV/1706) cells, Assay Type: Cell transformation, viral enhanced, Assay Code: CTR+, Evaluation Type: Evaluation A (Pre-1980)) is reported as “active; positive” and the call (Species/Cell Type: Nonhuman, Assay Code: CCG-L, Evaluation Type: Evaluation A (Pre-1980)) is reported as “inactive; negative”.
For `O=Cc1ccco1`, the mutagenic call [4] was “active; positive”, the mutagenic call [5] was “active; positive” and the mutagenic call [9] was “active; positive”.
For `O=c1[nH]c(Cl)c(Cl)cc1Cl`, the mutagenic call (Species/Cell Type: Nonhuman, Assay Type: Sister-chromatid exchange (SCE) in vitro, Assay Code: SC2T, Evaluation Type: Evaluation B (Post-1980)) was “no conclusion” and the mutagenic call (Species/Cell Type: Nonhuman, Assay Type: Sister-chromatid exchange (SCE) in vivo, Assay Code: SC3-, Evaluation Type: Evaluation B (Post-1980)) was “inactive; negative”.
With `C[N+](C)(C)CCO` the mutagenic call (Species/Cell Type: Escherichia coli polA (W3119 vs P3478), Assay Type: Rec-assay, DNA effects (bacterial DNA repair), Assay Code: RE1T, Evaluation Type: Evaluation A (Pre-1980)) was “no conclusion” and the mutagenic call [8] was “active; positive”.
`CCC(Cc1c(I)cc(I)c(N)c1I)C(=O)O` (stereo unspecified) was tested, and the mutagenic call (Species/Cell Type: Human lymphocytes, Assay Type: Sister-chromatid exchange (SCE) in vitro, Assay Code: SCLT, Evaluation Type: Evaluation B (Post-1980)) was “no conclusion” and the mutagenic call (Species/Cell Type: Human, Assay Type: Sister-chromatid exchange (SCE) in vitro, Assay Code: SC1T, Evaluation Type: Evaluation B (Post-1980)) was “no conclusion”.
With `ClC(Br)Br` the mutagenic call [4] was “active; positive”, the mutagenic call [5] was “active; positive” and the mutagenic call (Species/Cell Type: Nonhuman, Assay Type: Sister-chromatid exchange (SCE) in vivo, Assay Code: SC3+D, Dose Response: With dose response, Evaluation Type: Evaluation B (Post-1980)) was “active; positive”.
With `CC(C)(C#N)Nc1nc(Cl)nc(NC2CC2)n1` the mutagenic call (Species/Cell Type: Zea mays (corn), Assay Type: Gene mutation, Assay Code: ZEM-, Evaluation Type: Evaluation A (Pre-1980)) was “inactive; negative”.
In the case of `CCNc1nc(NC(C)C)nc(SC)n1`, the mutagenic call (Species/Cell Type: Saccharomyces cerevisiae, Assay Type: Mitotic recombination or gene conversion, Assay Code: YEC-, Evaluation Type: Evaluation A (Pre-1980)) is reported as “inactive; negative”.
In the case of `[Cl][Th]([Cl])([Cl])[Cl]`, the mutagenic call [6] is reported as “inactive; negative”.
`CC(=O)N(C)N=O` was tested, and the mutagenic call [3] was “active; positive”, the mutagenic call (Species/Cell Type: Drosophila melanogaster, Sex: Male, Assay Type: Heritable translocation test, chromosome aberrations, Assay Code: DHTT, Evaluation Type: Evaluation A (Pre-1980)) was “no conclusion” and the mutagenic call (Species/Cell Type: Saccharomyces cerevisiae, Assay Type: Forward gene mutation, Assay Code: YEF+, Evaluation Type: Evaluation A (Pre-1980)) was “active; positive”. The mutagenic call (Species/Cell Type: Saccharomyces cerevisiae, Assay Type: Reverse gene mutation, Assay Code: YER+, Evaluation Type: Evaluation A (Pre-1980)) was “active; positive”.
For `CCCCN(N=O)/C(N)=N/[N+](=O)[O-]`, the mutagenic call (Species/Cell Type: Arabidopsis species, Assay Type: Gene mutation, Assay Code: ARM+, Evaluation Type: Evaluation A (Pre-1980)) was “active; positive” and the mutagenic call [9] was “active; positive”.
For `CN1CCC=C(C(=O)O)C1`, the mutagenic call (Species/Cell Type: Mammalian polychromatic erythrocytes, Assay Type: Micronucleus test, chromosome aberrations, Assay Code: MNTT, Evaluation Type: Evaluation B (Post-1980)) was “no conclusion”.
In the case of `CN(CCCC(=O)c1cccnc1)N=O`, the mutagenic call (Species/Cell Type: Rat primary hepatocytes, Assay Type: Unscheduled DNA synthesis (UDS) in vitro, DNA effects, Assay Code: UDP+D, Dose Response: With dose response, Evaluation Type: Evaluation A (Pre-1980)) is reported as “active; positive”.
With `Oc1ccc2ccccc2c1N=Nc1cc[c]([Hg+])cc1` the mutagenic call (Species/Cell Type: Salmonella typhimurium (one or more of the five standard strains: TA98, TA100, TA1535, TA1537, and TA1538), Assay Type: Histidine reverse gene mutation, Ames assay, Assay Code: SALT, Evaluation Type: Evaluation A (Pre-1980)) was “no conclusion”.
For `CCN(CC)Cc1cc(CC(=O)NN)ccc1OC(C)C`, the mutagenic call (Species/Cell Type: Saccharomyces cerevisiae, Assay Type: Reverse gene mutation, Assay Code: YERT, Evaluation Type: Evaluation A (Pre-1980)) was “no conclusion”.
In the case of `O=S(=O)(O)c1c(N=Nc2c(O)ccc3ccccc23)ccc2ccccc12`, the mutagenic call [7] is reported as “inactive; negative”.
